Laboratory results taken from the supplement of paper PMC10307832.

Tests used:
Assay in all cases: relative viability (nuclei count vs DMSO), 5 days (fraction); higher = more cells survive
[1] = compound: CC1=CC=C(C=C1)C(=O)CN2C3=C(CCCC3)SC2=N [Pifithrin_alpha] + CCNC(=O)c1noc(-c2cc(C(C)C)c(O)cc2O)c1-c1ccc(CN2CCOCC2)cc1 [Luminespib] (partner 0.01 µM)
Outline: (§1)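 For relative viability, nuclei counts in treated wells were divided by those in vehicle wells. Lung cancer cell lines had been pin-tool dosed in 1536-well plates the day after seeding and cultured for 5 days, then fixed and stained in one step (final 0.05% Triton X-100, 1% formaldehyde, 1 ug/ml Hoechst) and imaged at 4×. Doses were one drug alone or a fixed anchor-drug dose plus five library-drug doses (not always all listed) in √10 steps, and values are duplicate-plate medians.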

[2] = compound: CC1=CC=C(C=C1)C(=O)CN2C3=C(CCCC3)SC2=N [Pifithrin_alpha] + Nc1nc2[nH]cc(CCc3ccc(C(=O)N[C@@H](CCC(=O)O)C(=O)O)cc3)c2c(=O)[nH]1 [Pemetrexed] (partner 0.2 µM)
Outline: as §1

[3] = compound: CNC(=O)c1ccccc1Sc1ccc2c(/C=C/c3ccccn3)n[nH]c2c1 [Axitinib] + COc1cc2c(Oc3ccc(NC(=O)C4(C(=O)Nc5ccc(F)cc5)CC4)cc3F)ccnc2cc1OCCCN1CCOCC1 [Foretinib] (partner 0.25 µM)
Outline: as §1

[4] = compound: Nc1nc(Nc2ccc3c(c2)CC[C@@H](N2CCCC2)CC3)nn1-c1cc2c(nn1)-c1ccccc1CCC2 [Bemcentinib] + COc1cccc2cc(-c3nc([C@H]4CC[C@H](C(=O)O)CC4)n4ncnc(N)c34)[nH]c12 [OSI-027] (partner 0.5 µM)
Outline: as §1

| Cell Line | relative viability ([1]; first compound 1 µM) | relative viability ([1]; first compound 3.162 µM) | relative viability ([1]; first compound 10 µM) | relative viability ([1]; first compound 31.62 µM) | relative viability ([1]; first compound 100 µM) | relative viability ([2]; first compound 1 µM) | relative viability ([2]; first compound 3.162 µM) | relative viability ([2]; first compound 10 µM) | relative viability ([2]; first compound 31.62 µM) | relative viability ([2]; first compound 100 µM) | relative viability ([3]; first compound 0.005 µM) | relative viability ([3]; first compound 0.01581 µM) | relative viability ([3]; first compound 0.05 µM) | relative viability ([3]; first compound 0.1581 µM) | relative viability ([3]; first compound 0.5 µM) | relative viability ([4]; first compound 0.04 µM) | relative viability ([4]; first compound 0.1265 µM) | relative viability ([4]; first compound 0.4 µM) | relative viability ([4]; first compound 1.265 µM) | relative viability ([4]; first compound 4 µM) |
| --- | --- | --- | --- | --- | --- | --- | --- | --- | --- | --- | --- | --- | --- | --- | --- | --- | --- | --- | --- | --- |
| BEN | 0.191 | 0.285 | 0.401 | 0.493 | 0.398 | 0.523 | 0.741 | 0.741 | 0.746 | 0.629 | 0.662 | 0.514 | 0.643 | 0.852 | 0.573 | 0.292 | 0.288 | 0.296 | 0.345 | 0.322 |
| LCLC-103H | 0.947 | 0.994 | 0.894 | 0.789 | 0.996 | 0.46 | 0.433 | 0.436 | 0.458 | 0.493 | 0.747 | 0.867 | 0.787 | 0.764 | 0.85 | 0.479 | 0.5 | 0.452 | 0.422 | 0.448 |
| NCI-H520 | 0.213 | 0.21 | 0.24 |  | 0.223 | 0.721 | 0.741 | 0.727 | 0.461 | 0.699 | 0.808 | 0.64 | 0.706 |  | 0.829 | 0.237 | 0.24 | 0.262 | 0.247 | 0.258 |
| NCI-H1975 | 0.291 | 0.151 | 0.199 | 0.189 | 0.181 | 0.285 | 0.277 | 0.27 | 0.212 | 0.228 | 1.05 | 0.944 | 0.938 | 0.997 | 1.03 | 0.719 | 0.82 | 0.737 | 0.795 | 0.772 |
| NCI-H1355 | 0.642 | 0.496 | 0.516 | 0.401 | 0.409 | 0.977 | 0.972 | 0.764 | 0.686 | 0.677 | 1.03 | 0.945 | 1.04 | 0.956 | 1.1 | 0.379 | 0.412 | 0.46 | 0.399 | 0.44 |
| IA-LM |  |  |  |  |  |  |  |  |  |  | 1.27 | 1.14 | 1.13 | 1.09 | 1.35 |  |  |  |  |  |
| H3255 | 0.744 | 0.843 | 0.965 | 0.642 | 0.964 | 0.507 | 0.533 | 0.537 | 0.532 | 0.505 | 1.03 | 0.61 | 0.848 | 0.859 | 0.801 | 0.597 | 0.66 | 0.558 | 0.66 | 0.666 |
| NCI-H1915 | 0.972 | 1.25 |  |  | 1.08 | 0.478 | 0.547 | 0.441 |  | 0.598 | 1.07 | 1.11 | 1.08 | 1.08 | 1.13 | 0.625 | 0.661 | 0.635 | 0.59 | 0.696 |
| NCI-H2023 | 0.544 | 0.637 | 0.364 | 0.277 | 0.34 | 0.28 | 0.254 | 0.215 | 0.157 | 0.153 | 0.906 | 0.943 | 0.911 | 0.923 | 0.923 | 0.323 | 0.511 | 0.462 | 0.419 | 0.445 |
| NCI-H3122 | 0.0988 | 0.106 | 0.0966 |  | 0.065 | 0.224 | 0.198 | 0.184 | 0.166 | 0.203 | 0.928 | 0.847 | 1.02 | 1.01 | 0.951 |  | 1.08 | 0.978 | 1.11 | 0.983 |
| SK-MES-1 | 0.644 | 0.698 | 0.478 | 0.262 | 0.286 | 0.84 | 0.845 | 0.863 | 0.494 | 0.623 | 0.976 | 0.977 | 1.02 | 0.925 | 0.951 | 0.645 | 0.595 | 0.666 | 0.799 | 0.69 |
| NCI-H1650 |  | 0.223 | 0.176 | 0.209 | 0.169 | 0.358 | 0.366 | 0.341 | 0.331 | 0.392 | 1.32 | 1.12 | 1.24 | 1.19 | 1.31 | 0.59 | 0.913 | 0.624 | 0.72 | 0.724 |
| NCI-H1792 | 0.323 | 0.666 | 0.284 | 0.219 | 0.271 | 1.12 | 0.649 | 0.675 |  | 0.585 |  |  |  |  |  | 0.85 | 0.884 | 0.881 | 1 | 0.768 |
| NCI-H1648 |  |  |  |  |  | 0.805 | 0.49 | 0.924 | 0.655 | 0.671 |  |  |  |  |  | 0.245 | 0.271 | 0.275 | 0.245 | 0.283 |
| HCC-44 | 1.06 | 1.21 | 0.671 | 0.543 | 0.622 | 0.56 | 0.584 | 0.667 | 0.519 | 0.574 |  |  |  |  |  | 0.452 | 0.661 | 0.446 | 0.483 | 0.511 |
| NCI-H727 | 0.44 | 0.238 | 0.491 |  | 0.263 |  |  |  |  |  | 1.23 | 0.837 | 0.896 | 0.982 | 1.15 | 0.552 | 0.631 | 0.645 | 0.592 | 0.576 |
| Calu-6 |  |  |  |  |  |  |  |  |  |  | 0.955 | 0.902 | 0.855 | 0.904 | 0.947 |  |  |  |  |  |
| EBC-1 |  |  |  |  |  |  |  |  |  |  | 0.104 | 0.116 | 0.0984 | 0.0972 | 0.122 |  |  |  |  |  |
| NCI-H1703 |  |  |  |  |  |  |  |  |  |  | 0.362 | 0.292 | 0.376 | 0.371 | 0.325 |  |  |  |  |  |
| NCI-H1299 |  |  |  |  |  |  |  |  |  |  | 1.06 | 1.04 | 1.08 | 1.08 | 1.24 |  |  |  |  |  |
| NCI-H522 |  | 1.16 | 1.26 | 0.993 | 1.11 | 0.805 | 0.978 | 1.02 | 0.796 | 1.05 |  |  |  |  |  | 0.714 | 0.548 | 0.614 | 0.656 | 0.728 |
| A549 |  |  |  |  |  |  |  |  |  |  | 0.977 | 0.973 | 0.972 | 0.976 | 1.23 |  |  |  |  |  |
